In ChEMBL document CHEMBL2424637, “Nucleophilic substitution reactions of 1,4-naphthoquinone and biologic properties of novel S-, S,S-, N-, and N,S-substituted 1,4-naphthoquinone derivatives” (2013):
≈ marks a conversion by molar mass, not a printed value. Calls of active or inactive are those of the source. The calls are words filed in the database; no cut-off is given here.

Columns and labels:
Type in all cases: functional
[1] = system: Staphylococcus aureus; assay: Antibacterial activity against Staphylococcus aureus 209-P at 0.5% after 24 hrs by agar disk diffusion technique
[2] = system: Mycobacterium; assay: Antibacterial activity against Mycobacterium luteum B-917 at 0.1% after 24 hrs by agar disk diffusion technique
[3] = system: Escherichia coli; assay: Antibacterial activity against Escherichia coli B-906 at 0.1% after 24 hrs by agar disk diffusion technique
[4] = system: Mycobacterium; assay: Antibacterial activity against Mycobacterium luteum B-917 after 24 to 72 hrs by serial dilution technique
[5] = system: Escherichia coli; assay: Antibacterial activity against Escherichia coli B-906 at 0.5% after 24 hrs by agar disk diffusion technique
[6] = system: Staphylococcus aureus; assay: Antibacterial activity against Staphylococcus aureus 209-P at 0.1% after 24 hrs by agar disk diffusion technique
[7] = system: Aspergillus niger; assay: Antifungal activity against Aspergillus niger F-1119 at 0.1% after 48 to 72 hrs by agar disk diffusion technique
[8] = system: Staphylococcus aureus; assay: Antibacterial activity against Staphylococcus aureus 209-P after 24 to 72 hrs by serial dilution technique
[9] = system: Escherichia coli; assay: Antibacterial activity against Escherichia coli B-906 after 24 to 72 hrs by serial dilution technique
[10] = system: Aspergillus niger; assay: Antifungal activity against Aspergillus niger F-1119 at 0.5% after 48 to 72 hrs by agar disk diffusion technique
[11] = system: Yamadazyma tenuis; assay: Antifungal activity against Candida tenuis VKM Y-70 at 0.1% after 48 to 72 hrs by agar disk diffusion technique
[12] = system: Mycobacterium; assay: Antibacterial activity against Mycobacterium luteum B-917 at 0.5% after 24 hrs by agar disk diffusion technique
[13] = system: Yamadazyma tenuis; assay: Antifungal activity against Candida tenuis VKM Y-70 at 0.5% after 48 to 72 hrs by agar disk diffusion technique
[14] = system: Aspergillus niger; assay: Antifungal activity against Aspergillus niger F-1119 after 24 to 72 hrs by serial dilution technique
[15] = system: Yamadazyma tenuis; assay: Antifungal activity against Candida tenuis VKM Y-70 after 24 to 72 hrs by serial dilution technique

Row | MIC [4] | MIC [8] | MIC [9] | MIC [14] | MIC [15] | Compound | diameter of the inhibition zone (DIZ) [1] [mm] | diameter of the inhibition zone (DIZ) [2] [mm] | diameter of the inhibition zone (DIZ) [3] [mm] | diameter of the inhibition zone (DIZ) [5] [mm] | diameter of the inhibition zone (DIZ) [6] [mm] | diameter of the inhibition zone (DIZ) [7] [mm] | diameter of the inhibition zone (DIZ) [10] [mm] | diameter of the inhibition zone (DIZ) [11] [mm] | diameter of the inhibition zone (DIZ) [12] [mm] | diameter of the inhibition zone (DIZ) [13] [mm]
1 | inactive | inactive | inactive | inactive | inactive | O=C1C(Sc2c(Cl)c(Cl)c(Cl)c(Cl)c2Cl)=C(N2CCOCC2)C(=O)c2ccccc21 | 0 | 0 | 0 | 0 | 0 | 0 | 0 | 0 | 0 | 0
2 | inactive | inactive | inactive | 31.2 µg/mL (≈ 78.4 µM) | 31.2 µg/mL (≈ 78.4 µM) | O=C1C(Cl)=C(N2CCN(c3ccc([N+](=O)[O-])cc3)CC2)C(=O)c2ccccc21 | 0 | 0 | 0 | 0 | 0 | 0 | 13.7 | 8.5 | 0 | 15.7

Continued, molecule first:

Row | Compound | MIC [4] | MIC [8] | MIC [9] | MIC [14] | MIC [15] | diameter of the inhibition zone (DIZ) [1] [mm] | diameter of the inhibition zone (DIZ) [2] [mm] | diameter of the inhibition zone (DIZ) [3] [mm] | diameter of the inhibition zone (DIZ) [5] [mm] | diameter of the inhibition zone (DIZ) [6] [mm] | diameter of the inhibition zone (DIZ) [7] [mm] | diameter of the inhibition zone (DIZ) [10] [mm] | diameter of the inhibition zone (DIZ) [11] [mm] | diameter of the inhibition zone (DIZ) [12] [mm] | diameter of the inhibition zone (DIZ) [13] [mm]
3 | CCCCOC(=O)CCSC1=C(Sc2ccc(O)cc2)C(=O)c2ccccc2C1=O | inactive | inactive | inactive | inactive | inactive | 0 | 0 | 0 | 0 | 0 | 0 | 0 | 0 | 6 | 0
4 | COC(=O)CCSC1=C(N2CCC3(CC2)OCCO3)C(=O)c2ccccc2C1=O | 250 µg/mL (≈ 599 µM) | inactive | inactive | 500 µg/mL (≈ 1200 µM) | inactive | 0 | 0 | 0 | 0 | 0 | 0 | 8.4 | 0 | 12.6 | 0
5 | CN[C@H](CC(C)C)C(=O)N[C@H]1C(=O)N[C@@H](CC(N)=O)C(=O)N[C@H]2C(=O)N[C@H]3C(=O)N[C@H](C(=O)N[C@H](C(=O)O)c4cc(O)cc(O)c4-c4cc3ccc4O)[C@H](O)c3ccc(c(Cl)c3)Oc3cc2cc(c3O[C@@H]2O[C@H](CO)[C@@H](O)[C@H](O)[C@H]2O[C@H]2C[C@](C)(N)[C@H](O)[C@H](C)O2)Oc2ccc(cc2Cl)[C@H]1O [VANCOMYCIN] | – | – | – | – | – | – | 18 | 14 | – | 15 | – | – | – | – | –
6 | CCOC1=C(N(CC)Cc2ccncc2)C(=O)c2ccccc2C1=O | 125 µg/mL (≈ 372 µM) | 62.5 µg/mL (≈ 186 µM) | inactive | 31.2 µg/mL (≈ 92.7 µM) | 62.5 µg/mL (≈ 186 µM) | 0 | 0 | 0 | 0 | 0 | 8 | 19 | 12.4 | 7.4 | 20
7 | CCCCOC(=O)CCSC1=C(SCCC(=O)OCCCC)C(=O)c2ccccc2C1=O | inactive | inactive | inactive | inactive | inactive | 0 | 0 | 0 | 0 | 0 | 0 | 6 | 0 | 0 | 0
